Measured values: US7868206B2, “Trihalomethionine derivative and pharmaceutical product containing the same” (National University Corporation, Gunma University, priority 2005, dated 2011)
pIC50: −log10 of the molar value. Values joined by “and” are separate entries in the source; they are usually repeats but may differ in a detail not shown here. Equal values may be shown once. “Also recorded” adds a separate entry of the source. Where a name gives a salt, the structure may show the parent alone. Read-outs that look alike come from different tables or passages of the source.

Columns and labels:
[1] = test system: Entamoeba histolytica HM1: IMSS c16 strain; assay: Inhibition of proliferation of Entamoeba histolytica, anaerobic culture in 96-well plate, 72 hours, WST-1 (Example 2); format: cell-based; conditions: for pIC50: Entamoeba histolytica, 0.25 to 20 μM, anaerobic culture, read-out: IC50 (concentration required to inhibit proliferation by 50% compared to untreated controls)
Protocol: (§1) The Entamoeba histolytica HM1: IMSS c16 strain was cultured for 18 hours in a medium containing each compound at a concentration of 80 μM. […] The cell number was measured by determining the number of living cells of Entamoeba histolytica using WST-1 (Roche Diagnostics K.K.).
The killing effects of each of the compounds: trifluoromethionine (TFM), trifluoromethionine amide (WY200), SK254, SK258, WY241, WY244, WY252, K010, SK276, SK316, SK336, and SK337 on Entamoeba histolytica HM1: IMSS c16 strain were examined. The Entamoeba histolytica HM1: IMSS c16 strain was anaerobically cultured in a medium containing each compound at a concentration of 0.25 to 20 μM in a 96-well plate: The number of cells after 72 hours was determined in the same way as Example 1. […] It was found from the results that many compounds including SK337 killed the Entamoeba histolytica protozoan at concentrations more than 10-fold lower than the concentration of trifluoromethionine.

[2] = test system: Entamoeba histolytica HM1: IMSS c16 strain; conditions: for Total liver weight / Liver non-abscess portions / Liver abscess portions: individual hamsters A, B, C; for Liver abscess portions: dash = no abscess (total = non-abscess)
Protocol: Next, the compound of the present invention was evaluated in an animal infection experiment using a hamster liver abscess model. First, an Entamoeba histolytica HM1: IMSS c16 strain was injected to 3-week-old female hamsters to induce liver abscesses. […] In Table 2, A, B, and C in the respective groups show individual hamsters used. Many other compounds (trifluoromethionine, SK254, SK258, WY241, WY244, and WY252) were evaluated in animal infection experiments in the same way as Example 3.

[3] = test system: Entamoeba histolytica HM1: IMSS c16 strain; assay: Killing effect on Entamoeba histolytica, living cell number by WST-1 after 18 hours (Example 1, FIG. 1); format: cell-based; conditions: 80 μM, 18 hours culture
Protocol: as §1, with “The killing effect of each of the compounds: trifluoromethionine (TFM), trifluoromethionine amide (WY200), metronidazole (known anti-amoeba drug) on an Entamoeba histolytica HM1: IMSS c16 strain was examined. The Entamoeba” for “The Entamoeba”

[4] = intraperitoneal 3 μmol (1.1 to 1.3 mg) per hamster (body weight 28 to 37 g), hydrochloride
[5] = intraperitoneal 3 μmol per hamster, hydrochloride
[6] = intraperitoneal 3 μmol (1.1 to 1.3 mg) per hamster (body weight 28 to 37 g)
[7] = intraperitoneal 3 μmol per hamster

Work on `NC(CSC(F)(F)F)C(=O)Nc1ccccc1` (stereo in doubt) [KO10, (S)-2-amino-N-phenyl-3-(trifluoromethylthio)propanamide hydrochloride] yielded a pIC50 [1] of 4.86.
In the case of `Cl.N[C@@H](CCSC(F)(F)F)C(=O)NCc1ccccc1` [SK254, (S)-2-amino-N-benzyl-4-(trifluoromethylthio)butanamide hydrochloride], the pIC50 [1] was 5.60, the Total liver weight [2, 4] was “A. 2,318 mg; also recorded: B. 2,193 mg; also recorded: C. 2,386 mg” and the Liver non-abscess portions [2, 5] was 2,318 mg and 2,193 mg and 2,386 mg.
With `Cl.N[C@@H](CCSC(F)(F)F)C(=O)Nc1ccccc1` [SK258, (S)-2-amino-N-phenyl-4-(trifluoromethylthio)butanamide hydrochloride] the pIC50 [1] was 5.60, the Total liver weight [2, 4] was “A. 2,071 mg; also recorded: B. 2,768 mg; also recorded: C. 1,510 mg” and the Liver non-abscess portions [2, 5] was 2,071 mg and 2,768 mg and 1,510 mg.
Work on `N[C@@H](CCSC(F)(F)F)C(=O)NC1CCc2ccccc21` (stereo partly drawn) [SK276, (2S)-2-amino-N-(2,3-dihydro-1H-inden-1-yl)-4-(trifluoromethylthio) butanamide hydrochloride] yielded a pIC50 [1] of 5.17.
Work on `N[C@@H](CSC(F)(F)F)C(=O)NCc1ccccc1` [SK316, (R)-2-amino-N-benzyl-3-(trifluoromethylthio)propanamide hydrochloride] yielded a pIC50 [1] of 5.05.
In the case of `COc1cc(NC(=O)[C@@H](N)CCSC(F)(F)F)cc(OC)c1OC` [SK336, (S)-2-amino-N-(3,4,5-trimethoxyphenyl)-4-(trifluoromethylthio)butanamide hydrochloride], the pIC50 [1] was 5.77.
`COc1ccc(NC(=O)[C@@H](N)CCSC(F)(F)F)cc1OC.Cl` [SK337, (S)-2-amino-N-(3,4-dimethoxyphenyl)-4-(trifluoromethylthio)butanamide hydrochloride] was tested, and the pIC50 [1] was 5.82 and the “concentration lower than the concentration of trifluoromethionine” value ([1]; compared with trifluoromethionine) was “more than 10 fold”.
`N[C@@H](CCSC(F)(F)F)C(=O)O` [TFM, trifluoromethionine, reference compound] was tested, and the pIC50 [1] was 4.76, the Total liver weight [2, 6] was “A. 2,240 mg; also recorded: B. 2,415 mg; also recorded: C. 2,575 mg” and the Liver non-abscess portions [2, 7] was 2,240 mg and 2,415 mg and 2,575 mg.
`NC(=O)[C@@H](N)CCSC(F)(F)F` [WY200, trifluoromethionine amide] was tested, and the “killing effect on Entamoeba histolytica (number of living cells)” value [3] was “more effectively than trifluoromethionine”, the Total liver weight [2, 6] was “A. 3,059 mg; also recorded: B. 1,624 mg” and the Liver non-abscess portions [2, 7] was 3,059 mg and 1,624 mg. The “increase of total weights of the liver (in words)” value ([2]; intraperitoneal 40 μmol) was “did not increase the total weights of the liver”, the “liver abscess formation (in words)” value ([2]; intraperitoneal 40 μmol) was “caused no liver abscess” and the Total liver weight ([2]; intraperitoneal 40 μmol, 3-week-old female hamsters) was “B. 2814 mg; also recorded: A. 2157 mg”. The Liver non-abscess portions ([2]; intraperitoneal 40 μmol) was 2814 mg and 2145 mg.
For `Cl.N[C@@H](CCSC(F)(F)F)C(=O)Nc1ccc(Br)cc1` [WY241, 1-(4-bromophenylcarbamoyl)-3-trifluoromethylsulfanyl-propyl-ammonium chloride], the pIC50 [1] was 4.93, the Total liver weight [2, 6] was “A. 2,916 mg; also recorded: B. 2,371 mg; also recorded: C. 2,900 mg” and the Liver non-abscess portions [2, 7] was 2,916 mg and 2,371 mg and 2,900 mg.
In the case of `Cl.N[C@@H](CCSC(F)(F)F)C(=O)Nc1ccc(F)cc1F` [WY244, 1-(2,4-difluoro-phenylcarbamoyl)-3-trifluoromethylsulfanyl-propyl-ammonium chloride], the pIC50 [1] was 5.26, the Total liver weight [2, 6] was “A. 2,575 mg; also recorded: B. 2,181 mg; also recorded: C. 2,570 mg” and the Liver non-abscess portions [2, 7] was 2,561 mg and 2,181 mg and 2,570 mg. For the same compound, the Liver abscess portions [2, 7] was 14 mg.
`COc1cc(NC(=O)[C@@H](N)CCSC(F)(F)F)cc(OC)c1.Cl` [WY252, 1-(3,5-dimethoxy-phenylcarbamoyl)-3-trifluoromethylsulfanyl-propylammonium chloride] was tested, and the pIC50 [1] was 5.80, the Total liver weight [2, 6] was “A. 2,539 mg; also recorded: B. 3,338 mg; also recorded: C. 2,687 mg” and the Liver non-abscess portions [2, 7] was 2,1204 mg and 3,338 mg and 2,687 mg. It also gave a Liver abscess portions [2, 7] of 19 mg.
